From US20250270246A1, “LINCOSAMIDES AND USES THEREOF” (President and Fellows of Harvard College, priority 2022, published 2025) come the findings set out here.

The conditions of series [1]: from C=CCC[C@@H](NC(=O)[C@@H]1[C@@H]2OCC[C@@H](CC(C)C)C[C@H]2CN1C(=O)OC(C)(C)C)[C@H]1O[C@H](SCC=C)[C@H](O)[C@@H](O)[C@H]1O; rcm bond; 10-membered ring; Grubbs II (20 mol%)/benzoquinone; then HCl/MeOH; toluene; 0.2 mM; 0.33 h; 3 steps.
In series [2] the test system is E. faecium HAV#318, VRE; clinical. The experiment in a line: MIC by broth microdilution (CLSI). The series is classed as cell-based. The note with it: Enterococcus faecium, CaMHB, 24 h incubation, read-out: MIC E. faecium HAV#318, VRE. In short, it runs like this:
(§1)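 MIC read as the lowest compound level with no visible growth at 24 h (μg/mL). CLSI microdilution; CaMHB (Chelex 100-treated for P. aeruginosa); 5×10^5 CFU/mL; range 64-0.06 μg/mL; DMSO 2.5% final.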
(In general: Dilution methods test growth across graded concentrations, often in twofold steps.)

Series [3] concerns E. coli HAV#040, LptD. The experiment in a line: MIC by broth microdilution (CLSI). The note with it: Escherichia coli, 24 h, read-out: MIC E. coli HAV#040, LptD. It counts as cell-based. In short, it runs like this:
as §1

The subject of series [4] is S. pneumoniae HAV#003, ATCC 49619. Nature of the series: MIC by broth microdilution (CLSI). The series is classed as cell-based. The note with it: Streptococcus pneumoniae, ATCC49619, CaMHB, 24 h incubation. In short, it runs like this: as §1
Series [5] has as its system S. aureus HAV#016, MRSA. Nature of the series: MIC by broth microdilution (CLSI). It counts as cell-based. As to conditions: Staphylococcus aureus, CaMHB, 24 h incubation. In short, it runs like this:
as §1

The test system of series [6] is S. aureus ATCC 29213 (HAV#001). Nature of the series: MIC by broth microdilution (CLSI). The series is classed as cell-based. The note with it: Staphylococcus aureus, ATCC29213, 24 h, HAV#001, ATCC 29213; CaMHB, 24 h incubation; read-out: MIC S. aureus ATCC 29213. In short, it runs like this: as §1
The subject of series [7] is E. coli ATCC 25922 (HAV#006). The experiment in a line: MIC by broth microdilution (CLSI). It counts as cell-based. The note with it: Escherichia coli, ATCC25922, 24 h, HAV#006, ATCC 25922; CaMHB, 24 h incubation; read-out: MIC E. coli ATCC 25922. In short, it runs like this: as §1
The test system of series [8] is K. oxytoca HAV#450; Clinical. The experiment in a line: MIC by broth microdilution (CLSI). The series is classed as cell-based. The note with it: Klebsiella oxytoca, CaMHB, 24 h incubation, read-out: MIC K. oxytoca HAV#450. In short, it runs like this: as §1
Series [9] concerns S. pyogenes HAV#004, ATCC 19615. Nature of the series: MIC by broth microdilution (CLSI). The series is classed as cell-based. As to conditions: Streptococcus pyogenes, ATCC19615, CaMHB, 24 h incubation. In short, it runs like this: as §1
Series [10] has as its system E. coli HAV#038, ΔTolC. Nature of the series: MIC by broth microdilution (CLSI). It counts as cell-based. The note with it: Escherichia coli, 24 h, read-out: MIC E. coli HAV#038, ΔTolC. In short, it runs like this:
as §1

Series [11] concerns S. aureus HAV#202, ATCC 700699. The experiment in a line: MIC by broth microdilution (CLSI). The series is classed as cell-based. As to conditions: Staphylococcus aureus, ATCC700699, CaMHB, 24 h incubation. In short, it runs like this: as §1
For series [12], the system named is P. aeruginosa ATCC 27853 (HAV#009). The experiment in a line: MIC by broth microdilution (CLSI), Chelex 100-treated broth. It counts as cell-based. As to conditions: Pseudomonas aeruginosa, ATCC27853; HAV#009, ATCC 27853; CaMHB pre-treated with Chelex 100 ion exchange resin, 24 h. Here is the method:
Minimum inhibitory concentrations (MICs) were determined by the broth microdilution method following the Clinical and Laboratory Standards Institute (CLSI) guidelines. Test organisms consisted of standard reference strains from the American Type Culture Collection (ATCC; Manassa, VA, USA) and clinical isolates obtained from JMI Laboratories Inc. (North Liberty, IA, USA), Micromyx repository (MMX; Kalamazoo, MI, USA), and Massachusetts Eye and Ear Hospital (Boston, USA). Before the start of the MIC experiment, standard and test compound stock solutions were prepared in dimethyl sulfoxide (DMSO, Aldrich D2650) at a stock concentration of 2,560 μg/mL. The compound concentration range typically employed for each experiment was 64-0.06 μg/mL (2.5% final DMSO concentration). Iboxamycin was used as a comparator in all experiments. All bacterial strains were sub-cultured on blood agar plates (tryptic soy agar with 5% sheep blood, Hardy Diagnostics) and incubated overnight at 35° C. Organisms were suspended in cation-adjusted Mueller-Hinton broth (CaMHB, BD 212322) and optical density was adjusted to 0.5 McFarland standard. Suspensions were further diluted to obtain a final inoculum of 5×10^5 CFU/mL for broth microdilution experiments. The minimum concentration of compound required to inhibit visible bacterial growth after 24 h of incubation was recorded as the MIC in μg/mL. MICs for P. aeruginosa were recorded in cation-adjusted Mueller-Hinton broth which had been pre-treated with Chelex 100 ion exchange resin according to procedures reported in Ito et al. Antimicrob Agents Chemother (2016) 60 (12), 7396-7401.

Series [13] concerns E. faecalis ATCC 29212 (HAV#005). Nature of the series: MIC by broth microdilution (CLSI). As to conditions: Enterococcus faecalis, ATCC29212, 24 h, HAV#005, ATCC 29212; CaMHB, 24 h incubation; read-out: MIC E. faecalis ATCC 29212. It counts as cell-based. In short, it runs like this: as §1
Series [14] relates to K. pneumoniae JMI-991193. The experiment in a line: MIC by broth microdilution (CLSI). The series is classed as cell-based. The note with it: Klebsiella pneumoniae, JMI991193, 24 h, JMI-991193; CaMHB, 24 h incubation; read-out: MIC K. pneumoniae JMI-991193. In short, it runs like this:
as §1

Series [15] relates to H. influenzae ATCC 49247. The experiment in a line: MIC by broth microdilution (CLSI). The series is classed as cell-based. As to conditions: Haemophilus influenzae, ATCC49247; ATCC 49247; 24 h incubation; read-out: MIC H. influenzae ATCC 49247. In short, it runs like this:
as §1

Series [16] concerns S. aureus MMX 3035. The experiment in a line: MIC by broth microdilution (CLSI). The series is classed as cell-based. The note with it: Staphylococcus aureus, MMX3035, 24 h, MMX 3035; CaMHB, 24 h incubation; read-out: MIC S. aureus MMX 3035. In short, it runs like this: as §1
Series [17] has as its system S. pneumoniae c-ermB. The experiment in a line: MIC by broth microdilution (CLSI). It counts as cell-based. The note with it: Streptococcus pneumoniae, 24 h, read-out: MIC S. pneumoniae c-ermB. In short, it runs like this:
as §1

The subject of series [18] is M. catarrhalis ATCC 25238. Nature of the series: MIC by broth microdilution (CLSI). It counts as cell-based. The note with it: Moraxella catarrhalis, ATCC25238, 24 h incubation. In short, it runs like this:
as §1

The subject of series [19] is E. faecium JMI-990536. Nature of the series: MIC by broth microdilution (CLSI). The series is classed as cell-based. As to conditions: Enterococcus faecium, JMI990536, 24 h, JMI-990536; CaMHB, 24 h incubation; read-out: MIC E. faecium JMI-990536. In short, it runs like this: as §1
Series [20] concerns E. coli lptD mutant. Nature of the series: MIC by broth microdilution (CLSI). The series is classed as cell-based. The note with it: Escherichia coli, 24 h, read-out: MIC E. coli lptD mutant, lptD mutant / ΔlptD mutant; CaMHB, 24 h incubation. In short, it runs like this:
as §1

The test system of series [21] is S. aureus Clinical (cfr). The experiment in a line: MIC by broth microdilution (CLSI). The note with it: Staphylococcus aureus, 24 h, Clinical (cfr); CaMHB, 24 h incubation; read-out: MIC S. aureus Clinical (cfr). The series is classed as cell-based. In short, it runs like this:
as §1

≈ marks a conversion by molar mass, not a printed value. Where “and” joins values, the source holds several entries; their conditions need not be identical. Equal values may be shown once. Where a name gives a salt, the structure may show the parent alone.

For `CC(C)C[C@@H]1CCO[C@@H]2[C@@H](C1)CN(C(=O)OC(C)(C)C)[C@@H]2C(=O)N[C@@H]1CCC=CCS[C@H]2O[C@H]1[C@H](O)[C@H](O)[C@H]2O`, the ring closure, yield after HPLC in series [1] is 1.3% and 1.7%.

With `CC(C)C[C@@H]1CCO[C@@H]2[C@H](CN[C@@H]2C(=O)N[C@@H]2CCCCCS[C@H]3O[C@H]2[C@H](O)[C@H](O)[C@H]3O)C1` [FSA1503058, (4S,5aS,8S,8aR)-4-isobutyl-N-((1R,8R,9R,10R,11S,12R)-10,11,12-trihydroxy-13-oxa-2-thiabicyclo[7.3.1]tridecan-8-yl) octahydro-2H-oxepino[2,3-c]pyrrole-8-carboxamide formate salt], the MIC in series [2] is 2 µg/mL; in series [3], 4 µg/mL; in [4], not above 0.03 µg/mL; in [5] it was 0.125 µg/mL; in [6], 0.125 µg/mL; in series [7] it was 16 µg/mL. Also, the MIC in series [8] is 32 µg/mL; in series [9], not above 0.03 µg/mL; in series [10], 1 µg/mL; in series [11], 4 µg/mL.

For the compound `CC(C)C[C@@H]1CCO[C@@H]2[C@H](CN[C@@H]2C(=O)N[C@H]2[C@H]3O[C@H](SCCCC/C=C/[C@@H]2C)[C@H](O)[C@@H](O)[C@H]3O)C1` [FSA1610014, (4S,5aS,8S,8aR)-4-isobutyl-N-((1R,9S,10R,11R,12R,13S,14R,E)-12,13,14-trihydroxy-9-methyl-15-oxa-2-thiabicyclo[9.3.1]pentadec-7-en-10-yl) octahydro-2H-oxepino[2,3-c]pyrrole-8-carboxamide], the MIC in series [12] is 32 µg/mL (≈ 60.8 µM); in [13], 2 µg/mL (≈ 3.8 µM); in series [14], more than 32 µg/mL; in [15], 0.25 µg/mL (≈ 0.475 µM); in series [16], 32 µg/mL (≈ 60.8 µM); in series [6] it was 0.5 µg/mL (≈ 0.949 µM). Moreover, the MIC is 16 µg/mL (≈ 30.4 µM) in [17]; 16 µg/mL (≈ 30.4 µM) in series [18]; more than 32 µg/mL in [7]; 32 µg/mL (≈ 60.8 µM) in series [19]; 16 µg/mL (≈ 30.4 µM) in series [20]; 32 µg/mL (≈ 60.8 µM) in [21].

`CC(C)C[C@@H]1CCO[C@@H]2[C@H](CN[C@@H]2C(=O)N[C@H]2[C@H]3O[C@H](SCCCC/C=C\[C@H]2C)[C@H](O)[C@@H](O)[C@H]3O)C1` [FSA1610015, (4S,5aS,8S,8aR)-4-isobutyl-N-((1R,9R,10R,11R,12R,13S,14R,Z)-12,13,14-trihydroxy-9-methyl-15-oxa-2-thiabicyclo[9.3.1]pentadec-7-en-10-yl) octahydro-2H-oxepino[2,3-c]pyrrole-8-carboxamide]: the MIC is 4 µg/mL (≈ 7.59 µM) in series [12]; 0.25 µg/mL (≈ 0.475 µM) in series [13]; 32 µg/mL (≈ 60.8 µM) in series [14]; not above 0.06 µg/mL in [15]; 8 µg/mL (≈ 15.2 µM) in series [16]; 0.125 µg/mL (≈ 0.237 µM) in [6]. The MIC in series [17] was determined as 4 µg/mL (≈ 7.59 µM); in series [18] it was 1 µg/mL (≈ 1.9 µM); in series [7] it was 8 µg/mL (≈ 15.2 µM); in [19], 1 µg/mL (≈ 1.9 µM); in [20], 1 µg/mL (≈ 1.9 µM); in series [21], 2 µg/mL (≈ 3.8 µM).

As for `CC(C)C[C@@H]1CCO[C@@H]2[C@H](CN[C@@H]2C(=O)N[C@H]2[C@H]3O[C@H](SCCCC/C=C/[C@H]2C)[C@H](O)[C@@H](O)[C@H]3O)C1` [FSA1610016, (4S,5aS,8S,8aR)-4-isobutyl-N-((1R,9R,10R,11R,12R,13S,14R,E)-12,13,14-trihydroxy-9-methyl-15-oxa-2-thiabicyclo[9.3.1]pentadec-7-en-10-yl) octahydro-2H-oxepino[2,3-c]pyrrole-8-carboxamide], the MIC is 4 µg/mL (≈ 7.59 µM) in series [12]; 0.25 µg/mL (≈ 0.475 µM) in [13]; 32 µg/mL (≈ 60.8 µM) in [14]; not above 0.06 µg/mL in [15]; 16 µg/mL (≈ 30.4 µM) in [16]; 0.125 µg/mL (≈ 0.237 µM) in series [6]. Moreover, the MIC is 8 µg/mL (≈ 15.2 µM) in series [17]; 2 µg/mL (≈ 3.8 µM) in series [18]; 16 µg/mL (≈ 30.4 µM) in [7]; 4 µg/mL (≈ 7.59 µM) in series [19]; 2 µg/mL (≈ 3.8 µM) in series [20]; 16 µg/mL (≈ 30.4 µM) in series [21].
